Results as given in patent US9278994B2, “Short antimicrobial lipopeptides” (Helix BioMedix Inc., priority 2012, dated 2016).
Converted amounts (≈) assume the structure as drawn. Where a SMILES comes first, the peptide text is derived from it. [ ]: non-standard residue; d: D form. The star is where a group is joined. Stearoyl = CCCCCCCCCCCCCCCCCC(=O)*; Palmitoyl = CCCCCCCCCCCCCCCC(=O)*; Myristoyl = CCCCCCCCCCCCCC(=O)*

Tests used:
C. albicans 105 = system: C. albicans 105
Experimental: (§1) We conducted the minimal inhibitory concentration (MIC) determination using CLSI (Clinical and Laboratory standard Institute) recommended standard protocol for antimicrobials (Methods for Dilution Antimicrobial Susceptibility Tests for Bacteria That Grow Aerobically; Approved Standard—Ninth Edition).
(§2) 2. Bacterial strains and culture conditions. E. coli UB1005, S. aureus SAP0017 (MRSA) and C. albicans 105 were grown in Mueller Hinton (MH) (Difco, BD Biosciences, MD) agar plates and broth (2 g of beef extract, 17.5 g of acid hydrolysis of casein and 1.5 g of starch per liter) at 37° C. unless otherwise indicated. Bacteria from frozen stock were subcultured onto freshly made MH agar plates prior to susceptibility testing. For P. acnes, the bacterium was grown in BBL™ Brain-Heart infusion (Becton, Dickinson & Company, Sparks Md.) broth or agar plates at 37° C. in anaerobic condition generated using a anaerobic jar and AnaeroGen™ (Oxoid, Basingstoke, Hampshire, England).
(§3) 3. […] The minimal inhibitory concentration (MIC) of each peptide was determined using modified CLSI microtiter broth dilution assay (Methods for Dilution Antimicrobial Susceptibility Tests for Bacteria That Grow Aerobically; Approved Standard—Ninth Edition). An inoculum of 10^5-10^6 colony forming units (CFU)/ml was used or 10^4 CFU/ml for yeast. The MIC value was taken as the lowest peptide concentration at which more than 90% of microbial growth was inhibited after 15 to 20 h of incubation at 37° C. For P. acnes, the incubation was kept under anaerobic condition at 37° C. for 2 weeks before MIC was determined Kill kinetics was performed using a given concentration (about 2-5-fold MIC) of peptide mixed with indicator microorganism. After appropriate dilution the cells were plated on agar plates after defined time intervals and incubated at 37° C. overnight. In the case of P. acnes an extended incubation period was required. The CFU was counted and plotted as survival of bacteria after peptide treatment over time, which indicates the effectiveness of a peptide to kill a microbe.

E. coli UB1005 = system: E. coli UB1005
Experimental: as §1, §2, §3

S. aureus SAP0017 (MRSA) = system: S. aureus SAP0017 (MRSA)
Experimental: as §1, §2, §3

P. acnes = format: cell-based, Propionibacterium acnes
Experimental: as §2, §3

[1] = system: P. acnes, S. aureus, E. coli and C. albicans; assay: MIC / antimicrobial activity; format: cell-based; conditions: summary of MIC results of Table 1
Experimental: as §2, §3

human dermal fibroblasts = assay: Gene profiling (PCR array of extracellular matrix adhesion molecule genes); format: cell-based; conditions: 5 μg/ml, 24 h; up (+) or down (−) regulation
Experimental: 5. Gene profiling analysis. The 84 genes encoding extracellular matrix adhesion molecules in human dermal fibroblasts were analyzed using PCR arrays conducted by Sunny Biodiscovery, Inc (Santa Paula, Calif.). Human dermal fibroblasts were from Zen-Bio, Research Triangle Park, N.C. (cat. #DF-F, lot #DFMF112410). […] At the end of the incubation cells were observed under the inverted Nikon TS microscope.
At the end of the incubation period cells were preserved in RNAlater solution (Ambion, Austin, Tex.) for 6 h. RNA was extracted and purified with NucleoSpin RNA II kit from Machery-Nagel, Bethleem, Pa.). Purified total RNA was assessed at 230 nm, 260 nm and 280 nm with Agilent HP-8452A diode array spectrophotometer. The concentration of RNA was equalized across the samples and the expression of genes of interest was measured by real-time quantitative PCR with BioRad iCycler iQ Detection System using PCR arrays PAHS-013A (www.sabiosciences.com/rt_pcr_product/HTML/PAHS-013A.html), with 1st strand synthesis kit, SYBR Green master mix and PCR running conditions from Qiagen (formerly SA Biosciences). Efficiency ΔΔCt method was used for quantification of results, after the normalization of gene expression to 5 housekeeping genes carried with the RT2 Profiler PCR Array Data Analysis version 3.5 software.

MIC C. albicans (C. albicans 105) [µg/mL]	MIC E. coli (E. coli UB1005) [µg/mL]	MIC S. aureus (S. aureus SAP0017 (MRSA)) [µg/mL]	MIC P. acnes (P. acnes) [µg/mL]	SMILES	antimicrobial activity (in words) [1]	further results
>2000	>2000	>2000	32 (≈ 54.9 µM)	CCCCCCCCCCCCCCCC(=O)N[C@@H](CCCCN)C(=O)N1CCC[C@@H]1C(=O)N[C@H](C(=O)O)[C@@H](C)O [HB2182, Pal-KdPT-OH] (Palmitoyl-Lys-[dP]-Thr-OH)	less active or inactive	–
>2000	>2000	>2000	8 (≈ 13.8 µM)	CCCCCCCCCCCCCCCC(=O)N[C@@H](CCCCN)C(=O)N1CCC[C@H]1C(=O)N[C@H](C(=O)O)C(C)C [HB2184, Pal-KPV-OH] (Palmitoyl-Lys-Pro-Val-OH)	less active or inactive	–
>2000	>2000	>2000	>2000	CCCCCCCCCCCCCCCC(=O)N1CCC[C@H]1C(=O)N[C@@H](CCCCN)C(=O)O [HB2255, Pal-PK-OH] (Palmitoyl-Pro-Lys-OH)	inactive	–
16 (≈ 29.6 µM)	8 (≈ 14.8 µM)	2 (≈ 3.71 µM)	<1	CCCCCCCCCCCCCCCC(=O)N[C@@H](CCCCN)C(=O)N[C@@H](CCCNC(=N)N)C(N)=O [HB2259, Pal-KR-NH2] (Palmitoyl-Lys-Arg-NH2)	broad spectrum antimicrobial activity	Fold change (peptide vs. PBS control) ADAMTS (human dermal fibroblasts): 2.4284 Fold change; Fold change (peptide vs. PBS control) CDH1 (human dermal fibroblasts): 1.0718 Fold change; Fold change (peptide vs. PBS control) COL1A1 (human dermal fibroblasts): −1.8661 Fold change; Fold change (peptide vs. PBS control) COL8A1 (human dermal fibroblasts): −2.5847 Fold change; Fold change (peptide vs. PBS control) HAS1 (human dermal fibroblasts): −3.0314 Fold change; Fold change (peptide vs. PBS control) ITGA2 (human dermal fibroblasts): 1.3195 Fold change; Fold change (peptide vs. PBS control) ITGA7 (human dermal fibroblasts): −1.8661 Fold change; Fold change (peptide vs. PBS control) ITGB2 (human dermal fibroblasts): 2.1435 Fold change; Fold change (peptide vs. PBS control) KAL1 (human dermal fibroblasts): 1.2311 Fold change; Fold change (peptide vs. PBS control) MMP1 (human dermal fibroblasts): 1.1487 Fold change; Fold change (peptide vs. PBS control) MMP8 (human dermal fibroblasts): 2.1435 Fold change; Fold change (peptide vs. PBS control) MMP9 (human dermal fibroblasts): −2.1435 Fold change; Fold change (peptide vs. PBS control) MMP10 (human dermal fibroblasts): 1.6245 Fold change; Fold change (peptide vs. PBS control) MMP13 (human dermal fibroblasts): −3.249 Fold change; Fold change (peptide vs. PBS control) MMP14 (human dermal fibroblasts): −2.4623 Fold change; Fold change (peptide vs. PBS control) SELE (human dermal fibroblasts): 1.0718 Fold change; Fold change (peptide vs. PBS control) THBS3 (human dermal fibroblasts): −1.6245 Fold change
>2000	>2000	>2000	>2000	CCCCCCCCCCCCCCCC(=O)N[C@@H](CCCCN)C(=O)N1CCC[C@H]1C(=O)O [HB2257, Pal-KP-OH] (Palmitoyl-Lys-Pro-OH)	inactive	–
32 (≈ 59.2 µM)	500 (≈ 925 µM)	16 (≈ 29.6 µM)	2 to 4	CCCCCCCCCCCCCCCC(=O)N[C@@H](CCCCN)C(=O)N[C@@H](CCCNC(=N)N)C(=O)O [HB2253, Pal-KR-OH] (Palmitoyl-Lys-Arg-OH)	broad spectrum antimicrobial activity	–
>2000	>2000	250 (≈ 567 µM)	32 to 64	CCCCCCCCCCCCCCCC(=O)N[C@@H](CCCCN)C(=O)NCC(N)=O [HB2243, Pal-KG-NH2] (Palmitoyl-Lys-Gly-NH2)	more Gram-positive selective activity	–
>2000	>2000	250 (≈ 503 µM)	8 (≈ 16.1 µM)	CCCCCCCCCCCCCCCC(=O)N[C@@H](CCCCN)C(=O)N[C@@H](CC(C)C)C(N)=O [HB2244, Pal-KL-NH2] (Palmitoyl-Lys-Leu-NH2)	more Gram-positive selective activity	–
>2000	>2000	>2000	32 (≈ 72.8 µM)	CCCCCCCCCCCCCCCC(=O)N1CCC[C@@H]1C(=O)N[C@@H](CO)C(N)=O [HB2207, Pal-dPS-NH2] (Palmitoyl-[dP]-Ser-NH2)	–	–
8 (≈ 13.1 µM)	128 (≈ 210 µM)	16 (≈ 26.2 µM)	1 to 2	CCCCCCCCCCCCCCCCCC(=O)N[C@@H](CCCCN)C(=O)N1CCC[C@@H]1C(=O)N[C@H](C(N)=O)[C@@H](C)O [HB2201, Stearoyl-K-dPT-NH2] (Stearoyl-Lys-[dP]-Thr-NH2)	–	–
250 (≈ 453 µM)	500 (≈ 906 µM)	250 (≈ 453 µM)	16 (≈ 29 µM)	CCCCCCCCCCCCCC(=O)N[C@@H](CCCCN)C(=O)N1CCC[C@H]1C(=O)N[C@H](C(N)=O)C(C)C [HB2191, Myristoyl-KPV-NH2] (Myristoyl-Lys-Pro-Val-NH2)	–	–
>2000	>2000	128 (≈ 258 µM)	>2000	CCCCCCCCCCCCCCCC(=O)N[C@@H](CCCCN)C(=O)N[C@H](C(N)=O)[C@@H](C)CC [HB2246, Pal-KI-NH2]	more Gram-positive selective activity	–
16 (≈ 26.3 µM)	>2000	16 (≈ 26.3 µM)	1 to 2	CCCCCCCCCCCCCCCCCC(=O)N[C@@H](CCCCN)C(=O)N1CCC[C@H]1C(=O)N[C@H](C(N)=O)C(C)C [HB2194, Stearoyl-KPV-NH2] (Stearoyl-Lys-Pro-Val-NH2)	–	–
16 (≈ 30.7 µM)	16 (≈ 30.7 µM)	4 (≈ 7.68 µM)	1 to 2	CCCCCCCCCCCCCCCC(=O)N[C@@H](CCCCN)C(=O)N[C@@H](Cc1c[nH]cn1)C(N)=O [HB2242, Pal-KH-NH2]	broad spectrum antimicrobial activity	Fold change (peptide vs. PBS control) ADAMTS (human dermal fibroblasts): 4.7899 Fold change; Fold change (peptide vs. PBS control) CDH1 (human dermal fibroblasts): 1.9725 Fold change; Fold change (peptide vs. PBS control) COL1A1 (human dermal fibroblasts): 1.1975 Fold change; Fold change (peptide vs. PBS control) COL8A1 (human dermal fibroblasts): −1.4044 Fold change; Fold change (peptide vs. PBS control) HAS1 (human dermal fibroblasts): −2.3295 Fold change; Fold change (peptide vs. PBS control) ITGA6 (human dermal fibroblasts): −1.014 Fold change; Fold change (peptide vs. PBS control) ITGA7 (human dermal fibroblasts): −2.0279 Fold change; Fold change (peptide vs. PBS control) ITGB2 (human dermal fibroblasts): 1.3947 Fold change; Fold change (peptide vs. PBS control) KAL1 (human dermal fibroblasts): 1.8404 Fold change; Fold change (peptide vs. PBS control) MMP1 (human dermal fibroblasts): 1.7171 Fold change; Fold change (peptide vs. PBS control) MMP8 (human dermal fibroblasts): −1.6472 Fold change; Fold change (peptide vs. PBS control) MMP9 (human dermal fibroblasts): −1.6472 Fold change; Fold change (peptide vs. PBS control) MMP10 (human dermal fibroblasts): 1.2142 Fold change; Fold change (peptide vs. PBS control) MMP13 (human dermal fibroblasts): −2.4967 Fold change; Fold change (peptide vs. PBS control) MMP14 (human dermal fibroblasts): 1.2142 Fold change; Fold change (peptide vs. PBS control) SELE (human dermal fibroblasts): 1.3947 Fold change; Fold change (peptide vs. PBS control) THBS3 (human dermal fibroblasts): −3.0738 Fold change
